Results taken from patent US20230257377A1, “2-AMINOQUINAZOLINONE DERIVATIVES AS METHIONINE ADENOSYLTRANSFERASE 2A INHIBITORS” (IDEAYA BIOSCIENCES, INC., priority 2020, published 2023).
pIC50: −log10 of the molar value.

These molecules were tested against T1, Human MAT2A (Homo sapiens, UniProt P31153) (assay: Phosphate Sensor Fluorescence Assay (Biologic Example A)). Conditions: MAT2A inhibition, procedure of Biological Example A; 500 uM L-methionine, 500 uM ATP, 0.1% BGG.
T1 construct: Human MAT2A: Cepter, amino acids 1-395 Clone ID 334, lot 00023-148; purchased Cepter clone ID 334, lot 00023-148
Assay type: biochemical
Procedure: (§1) The ability of the compound of present disclosure to inhibit MAT2A enzyme was determined using a Phosphate Sensor Fluorescence Assay described below.
(§2) MAT2A enzyme is incubated with a test compound in DMSO or DMSO and its substrates (L-methionine and ATP) in a microtiter plate. The enzymatic reaction is stopped by the addition of Working Phosphate Sensor Mixture. The plate is analyzed for fluorescence at 450 nm. The high control (DMSO with enzyme and its substrates) gives high fluorescence which represents no inhibition of enzymatic activity while the low control (DMSO with MAT2A substrates and no enzyme) gives low fluorescence which represents full inhibition of enzymatic activity.
Human MAT2A: Cepter, amino acids 1-395
Assay Buffer: 50 mM Tris, pH 7.5/50 mM KCl/10 mM MgCl2/0.01% Brij-35/1 mM DTT/0.1% BGG/40 nM PNP/6 uM 7-MEG
MAT2A: 10 nM for Cepter clone ID 329, lot 00023-123 before the addition of Working Phosphate Sensor Mixture • 5 nM for Cepter clone ID 334, lot 00023-148 before the addition of Working Phosphate Sensor Mixture
(§3) L-methionine: 500 uM before the addition of Working Phosphate Sensor Mixture
(§4) ATP: 500 uM before the addition of Working Phosphate Sensor Mixture
(§5) For the assay, a mixture of 1 mM L-methionine/1 mM ATP (2× final pre-stopped concentration) in assay buffer; MAT2A (2× final pre-stopped concentration) in Assay Buffer and Working Phosphate Sensor Mixture (1.5 uM Phosphate Sensor/30 mM EDTA in Assay Buffer, which is 3× final concentrations) were prepared. Test compounds or DMSO were added to the appropriate well suing D300e digital dispenser. 5 μl/well of Assay Buffer was added to the wells corresponding to the negative control and 5 μl/well of MAT2A was added to all the wells except for those corresponding to the negative control. After incubating the plate at room temperature for 15 minutes, 5 μl/well of the 1 mM L-methionine/1 mM ATP mixture was added to all wells. The plate was centrifuged at 1000 rpm for 1 minute and then incubated at room temperature for 1 hour. 5 μl of the Working Phosphate Sensor Mixture was added to all wells and the plate was centrifuged at 1000 rpm for 1 minute. The plate was read for fluorescence at 450 nm after exciting at 430 nm.
(§6) Percent inhibition was calculated in Chemical and Biological Information System (CBIS), (ChemInnovation Software Inc.). Curves were fitted by CBIS as % inhibition vs. log [compound concentration] using a 4-parameter inhibition model.
(§7) Fit=(A+((B−A)/(1+((C/x)^D))))

T1 sequence (P31153 whole entry, the tested form may be a part): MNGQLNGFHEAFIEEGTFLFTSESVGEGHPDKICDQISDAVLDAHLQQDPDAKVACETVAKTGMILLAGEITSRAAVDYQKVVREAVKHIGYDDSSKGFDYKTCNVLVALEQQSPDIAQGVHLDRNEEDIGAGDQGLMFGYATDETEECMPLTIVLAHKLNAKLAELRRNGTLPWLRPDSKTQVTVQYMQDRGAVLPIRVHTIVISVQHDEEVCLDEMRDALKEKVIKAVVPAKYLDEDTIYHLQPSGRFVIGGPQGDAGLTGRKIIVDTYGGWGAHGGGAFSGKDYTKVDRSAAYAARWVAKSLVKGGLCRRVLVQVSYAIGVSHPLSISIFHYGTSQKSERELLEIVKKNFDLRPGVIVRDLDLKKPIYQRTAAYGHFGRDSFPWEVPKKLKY

`Nc1nc(=O)c(-c2ccccc2)c2cc(C(F)(F)F)ccn12` [Compound 1.001, 1-amino-4-phenyl-6-(trifluoromethyl)-3H-pyrido[1,2-c]pyrimidin-3-one] and `Cc1ccccc1-c1c(=O)nc(N)n2ccc(C(F)(F)F)cc12` [Compound 1.002, 1-amino-4-(o-tolyl)-6-(trifluoromethyl)-3H-pyrido[1,2-c]pyrimidin-3-one] fall in the same range of pIC50: 6.70 to 8.00 for the first, 6.70 to 8.00 for the second.

First: Nc1nc(=O)c(-c2ccccc2Cl)c2cc(C(F)(F)F)ccn12 [Compound 1.003, 1-amino-4-(2-chlorophenyl)-6-(trifluoromethyl)-3H-pyrido[1,2-c]pyrimidin-3-one]
Second: COc1cc(C(F)(F)F)cc2c(-c3ccccc3C)c(=O)nc(N)n12 [Compound 1.004, 1-amino-8-methoxy-4-(o-tolyl)-6-(trifluoromethyl)-3H-pyrido[1,2-c]pyrimidin-3-one]
The pIC50 of the first is higher: 6.70 to 8.00 for the first, 6.30 to 6.70 for the second. The first is the more potent here.

These molecules were tested against T1, Human MAT2A (assay: Phosphate Sensor Fluorescence Assay (Biologic Example B)). Conditions: MAT2A inhibition, procedure of Biological Example B; 5.8 nM MAT2A, 500 uM L-methionine, 500 uM ATP, 0.01% BGG.
Assay type: biochemical
Procedure: as §1, §2
MAT2A: 5.8 nM MAT2A (1-395), Cepter, clone ID 334, lot 00023-148 before the addition of Working Phosphate Sensor Mixture
as §3, §4
as §5, with “(2X” for “(2×”, “3X” for “3×”, “using a Beckman Coulter Echo 550 acoustic liquid handler. 10 μL/well” for “suing D300e digital dispenser. 5 μl/well”, “10 μL/well” for “5 μl/well”, “10 μL” for “5 μl”, “nm on a Tecan Spark microplate reader.” for “nm.”
as §6, §7

`Nc1nc(=O)c(-c2cccnc2)c2cc(C(F)(F)F)ccn12` [Compound 1.005, 1-Amino-4-(pyridin-3-yl)-6-(trifluoromethyl)-3H-pyrido[1,2-c]pyrimidin-3-one] and `Cn1nccc1-c1c(=O)nc(N)n2ccc(C(F)(F)F)cc12` [Compound 1.006, 1-Amino-4-(1-methyl-TH-pyrazol-5-yl)-6-(trifluoromethyl)-3H-pyrido[1,2-c]pyrimidin-3-one] fall in the same range of pIC50: 6.70 to 8.00 for the first, 6.70 to 8.00 for the second.

`Nc1nc(=O)c(-c2ccccc2)c2cc(Br)ccn12` [Compound 1.007, 1-Amino-6-bromo-4-phenyl-3H-pyrido[1,2-c]pyrimidin-3-one] and `Cc1ccccc1-c1c(=O)nc(N)n2ccc(Br)cc12` [Compound 1.008, 1-Amino-6-bromo-4-(o-tolyl)-3H-pyrido[1,2-c]pyrimidin-3-one] fall in the same range of pIC50: 6.70 to 8.00 for the first, 6.70 to 8.00 for the second.

Compared with `CC(=O)Nc1nc(=O)c(-c2ccccc2)c2cc(C(F)(F)F)ccn12` [Compound 1.009, N-(3-oxo-4-phenyl-6-(trifluoromethyl)-3H-pyrido[1,2-c]pyrimidin-1-yl)acetamide], `CNc1nc(=O)c(-c2ccccc2)c2cc(C(F)(F)F)ccn12` [Compound 1.011, 1-(Methylamino)-4-phenyl-6-(trifluoromethyl)-3H-pyrido[1,2-c]pyrimidin-3-one] is higher in pIC50: 5.00 to 6.00 for the first, 6.70 to 8.00 for the second. The second is the more potent here.

In the case of `CCCNc1nc(=O)c(-c2ccccc2)c2cc(C(F)(F)F)ccn12` [Compound 1.010, 4-Phenyl-1-(propylamino)-6-(trifluoromethyl)-3H-pyrido[1,2-c]pyrimidin-3-one], the pIC50 was 6.70 to 8.00.
